Among the data in ChEMBL document CHEMBL3124795, “Synthesis and antiproliferative evaluation of 13-aryl-13H-benzo[g]benzothiazolo [2,3-b]quinazoline-5,14-diones” (Bioorg Med Chem Lett, 2014) are IC50 values, retold here.

Molecules are shown by their SMILES.

One experiment deals with HEK293. Briefly: Antiproliferative activity against human HEK293 cells after 48 hrs by MTT assay. It counts as cell-based. As to conditions: HEK293, 48 h. (In general: Tetrazolium dyes change colour on reduction, which living cells bring about.)
The test system of a further experiment is HeLa. Briefly: Antiproliferative activity against human HeLa cells after 48 hrs by MTT assay. Type of experiment: functional, cell-based.
A further experiment has as its system HepG2. Kind of experiment: Antiproliferative activity against human HepG2 cells after 48 hrs by MTT assay. Type of experiment: functional, cell-based. As to conditions: HepG2, 48 h.

In the case of `COc1ccc(OC)c(C2C3=C(N=C4Sc5ccccc5N42)C(=O)c2ccccc2C3=O)c1` (configuration not stated), the values for the IC50 in the experiment on HEK293, with HeLa and in the experiment with HepG2 were above 200 µM, 125 µM and 190 µM, respectively.
For `COc1cc(C2C3=C(N=C4Sc5ccccc5N42)C(=O)c2ccccc2C3=O)cc(OC)c1OC` (configuration not stated) the same measures were 11 µM, 9.32 µM and 5.03 µM.
Taken in the same sequence, the figures for `O=C1C2=C(C(=O)c3ccccc31)C(c1ccc([N+](=O)[O-])cc1)N1C(=N2)Sc2ccccc21` (configuration not stated) were 50.3 µM, 29 µM and 14.3 µM.
For `O=C1C2=C(C(=O)c3ccccc31)C(c1ccco1)N1C(=N2)Sc2ccccc21` (configuration not stated) the same measures were 10.1 µM, 6.62 µM and 9.07 µM.
In the case of `O=C1C2=C(C(=O)c3ccccc31)C(c1cccs1)N1C(=N2)Sc2ccccc21` (configuration not stated), the results for the IC50 with HEK293, in the experiment on HeLa and with HepG2 were 5.9 µM, 4.23 µM and 5.76 µM, respectively.
For `O=C1C2=C(C(=O)c3ccccc31)C(c1ccccc1)N1C(=N2)Sc2ccccc21` (configuration not stated) the same measures were 4.16 µM, 2.99 µM and 1.66 µM.
For `O=C1C2=C(C(=O)c3ccccc31)C(c1ccc(F)cc1)N1C(=N2)Sc2ccccc21` (configuration not stated) the same measures were 15.1 µM, 3.96 µM and 9.4 µM.
Taken in the same sequence, the figures for `Cc1ccc(C2C3=C(N=C4Sc5ccccc5N42)C(=O)c2ccccc2C3=O)cc1` (configuration not stated) were 5.18 µM, 3.81 µM and 1.7 µM.
Regarding `COc1cccc2c1C(=O)c1c(O)c3c(c(O)c1C2=O)C[C@@](O)(C(=O)CO)C[C@@H]3O[C@H]1C[C@H](N)[C@H](O)[C@H](C)O1` [DOXORUBICIN], the IC50 – broadly, the concentration at which inhibition is half-maximal – in the experiment with HEK293 amounted to 1.06 µM; with HepG2, 1.15 µM.
Consider `O=C1C2=C(C(=O)c3ccccc31)C(c1ccc(Cl)cc1Cl)N1C(=N2)Sc2ccccc21` (configuration not stated), for which the results for the IC50 in the experiment with HEK293, in the experiment with HeLa and with HepG2 were 4.9 µM, 2.68 µM and 3.56 µM, respectively.
For `O=C1C2=C(C(=O)c3ccccc31)C(c1ccc(Cl)cc1)N1C(=N2)Sc2ccccc21` (configuration not stated), the half-maximal inhibitory concentration (IC50) in the experiment on HEK293 came out at 25.9 µM; in the experiment with HeLa, 15.6 µM; with HepG2 it was 23.4 µM.
